From patent publication US20240300939A1 (Scorpion Therapeutics, Inc., priority 2021, published 2024)

target: T1, PI3Kα H1047R (Homo sapiens, UniProt P42336, H1047R); assay: Surface Plasmon Resonance (SPR) binding, wortmannin-blocked protein; details: Biacore 8K, protein pre-incubated with 1 μM wortmannin, 25° C.
T1 construct: The protein contained a full-length p110-a subunit harboring the H1047R mutation with an N-terminal AviTag
Protocol: SPR experiments were performed on a Biacore 8K instrument. A biotinylated recombinant PI3Kα H1047R protein was used in this study. The protein contained a full-length p110-a subunit harboring the H1047R mutation with an N-terminal AviTag, complexed with a truncated p85-a subunit (amino acid residues 322-694). The protein was first incubated with 1 μM wortmannin for 30 min at RT to covalently block the ATP binding site, then immobilized onto a streptavidin sensor chip by flowing the protein through the sensor chip at typically 20 μg/mL concentration and 2 μL/min flow rate for 1200 seconds. Compound binding affinities were measured in the multi-cycle kinetics mode, at 90 μL/min flow rate with 90 seconds association time and 240 seconds dissociation time. The running buffer contained 50 mM Tris, pH 7.5, 150 mM NaCl, 0.01% Brij35, 1 mM DTT, 1 mM MgCl2, 0.05% Tween-20 and 2% DMSO. Temperature was maintained at 25° C. during experiments.

T1 sequence (P42336 whole entry H1047R): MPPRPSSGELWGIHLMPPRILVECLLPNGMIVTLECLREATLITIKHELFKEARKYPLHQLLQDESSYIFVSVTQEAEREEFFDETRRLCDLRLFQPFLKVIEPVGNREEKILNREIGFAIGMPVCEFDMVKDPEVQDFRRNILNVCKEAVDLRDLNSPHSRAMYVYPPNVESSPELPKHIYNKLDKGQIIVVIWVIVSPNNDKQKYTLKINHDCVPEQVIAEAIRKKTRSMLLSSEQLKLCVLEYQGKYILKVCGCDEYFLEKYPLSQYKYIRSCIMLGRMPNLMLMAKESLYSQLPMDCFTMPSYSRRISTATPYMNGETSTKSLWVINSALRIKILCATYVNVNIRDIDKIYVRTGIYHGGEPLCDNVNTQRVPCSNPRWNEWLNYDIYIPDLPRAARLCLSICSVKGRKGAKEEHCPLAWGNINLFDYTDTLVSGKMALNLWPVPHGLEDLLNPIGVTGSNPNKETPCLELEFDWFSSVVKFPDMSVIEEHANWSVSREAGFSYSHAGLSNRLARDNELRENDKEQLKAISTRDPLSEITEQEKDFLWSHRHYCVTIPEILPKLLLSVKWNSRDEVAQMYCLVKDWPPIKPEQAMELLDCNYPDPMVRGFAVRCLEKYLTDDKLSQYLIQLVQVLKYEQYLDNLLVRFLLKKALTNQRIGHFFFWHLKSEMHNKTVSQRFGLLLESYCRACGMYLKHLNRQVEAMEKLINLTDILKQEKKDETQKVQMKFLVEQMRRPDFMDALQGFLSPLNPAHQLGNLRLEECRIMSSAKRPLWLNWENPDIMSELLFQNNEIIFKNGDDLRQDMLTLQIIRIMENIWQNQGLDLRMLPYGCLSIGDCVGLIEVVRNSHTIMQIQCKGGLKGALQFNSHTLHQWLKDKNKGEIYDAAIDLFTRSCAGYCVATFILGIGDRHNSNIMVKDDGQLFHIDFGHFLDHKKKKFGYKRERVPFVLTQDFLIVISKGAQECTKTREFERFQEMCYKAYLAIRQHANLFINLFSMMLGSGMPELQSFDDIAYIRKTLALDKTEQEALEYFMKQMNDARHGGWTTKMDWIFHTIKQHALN
T1 sequence (P27986 322-694 partner limits assumed): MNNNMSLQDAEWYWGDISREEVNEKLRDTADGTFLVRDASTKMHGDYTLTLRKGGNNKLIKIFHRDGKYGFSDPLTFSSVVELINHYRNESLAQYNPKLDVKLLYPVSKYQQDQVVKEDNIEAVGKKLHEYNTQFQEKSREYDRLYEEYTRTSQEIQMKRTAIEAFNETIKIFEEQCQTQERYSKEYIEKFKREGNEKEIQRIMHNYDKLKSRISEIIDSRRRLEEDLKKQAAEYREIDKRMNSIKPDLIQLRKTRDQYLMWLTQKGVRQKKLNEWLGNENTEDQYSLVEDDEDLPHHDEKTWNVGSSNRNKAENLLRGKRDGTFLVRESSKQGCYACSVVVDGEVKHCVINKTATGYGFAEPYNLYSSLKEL

| Kd [µM] | SMILES |
| --- | --- |
| ≥ 0.5 | Cc1c([C@@H](NC(=O)N[C@H]2CC[C@H](C(N)=O)CC2)C(C)C)oc2ccc(F)cc12 (relative stereo) [Compound 42, (1R,4r)-4-(3-((R*)-1-(5-fluoro-3-methylbenzofuran-2-yl)-2-methylpropyl)ureido)cyclohexane-1-carboxamide] |

system: pAKT (S473) in T47D cells (PI3Kα H1047R mutation); assay: HTRF pAKT (S473) in T47D cells; assay type: cell-based; details: Homo sapiens, T47D, 1 h

| IC50 [µM] | SMILES |
| --- | --- |
| < 1 | Cc1c([C@@H](NC(=O)Nc2cccc(N3CCC3=O)c2)C(C)C)oc2ccc(F)cc12 [Compound 104] |
| > 5 | Cc1c([C@H](NC(=O)Nc2cnc(NCC(C)(C)O)nc2)C(F)(F)F)oc2c(F)cc(F)cc12 [Compound 184] |
| > 5 | Cc1c([C@H](NC(=O)Nc2cnc(N3C[C@H](O)[C@H]3C)nc2)C(F)(F)F)oc2c(F)cc(F)cc12 [Compound 173] |
| < 1 | Cc1c([C@@H](NC(=O)Nc2cnc(N3C[C@H](O)[C@H]3C)nc2)C(F)(F)F)oc2c(F)cc(F)cc12 [Compound 174] |
| < 1 | Cc1c([C@@H](NC(=O)Nc2cnc(NCC(C)(C)O)nc2)C(F)(F)F)oc2c(F)cc(F)cc12 [Compound 183] |

same assay, conditions: timepoint 1 hour

| IC50 [µM] | SMILES |
| --- | --- |
| < 1 | Cc1c(C(NC(=O)Nc2ccc(N)nc2)C(F)(F)F)oc2c(F)cc(F)cc12 (centres unmarked) [Compound 182] |
| > 5 | Cc1c([C@H](NC(=O)Nc2cnc(N3CC(C(C)(C)O)C3)nc2)C(F)(F)F)oc2c(F)cc(F)cc12 [Compound 206] |
| > 5 | Cc1c([C@H](NC(=O)Nc2cnc(N3CC[C@H](O)C3)nc2)C(F)(F)F)oc2c(F)cc(F)cc12 [Compound 210] |
| < 1 | Cc1c([C@@H](NC(=O)Nc2cnc(N3CC[C@H](O)C3)nc2)C(F)(F)F)oc2c(F)cc(F)cc12 [Compound 209] |
| < 1 | Cc1c([C@@H](NC(=O)Nc2cnc(NC[C@@H](C)O)nc2)C(C)C)oc2ccc(F)cc12 [Compound 143] |
| > 5 | Cc1c([C@H](NC(=O)Nc2cnc(N3CC(C(N)=O)C3)nc2)C(F)(F)F)oc2c(F)cc(F)cc12 [Compound 212] |
| > 5 | Cc1c([C@H](NC(=O)Nc2cnc(N3CC[C@@H](O)C3)nc2)C(F)(F)F)oc2c(F)cc(F)cc12 [Compound 207] |
| < 1 | Cc1c([C@@H](NC(=O)Nc2cnc(N3CC(C(N)=O)C3)nc2)C(F)(F)F)oc2c(F)cc(F)cc12 [Compound 211] |
| < 1 | Cc1c([C@@H](NC(=O)Nc2cnc(N3CC[C@@H](O)C3)nc2)C(F)(F)F)oc2c(F)cc(F)cc12 [Compound 208] |
| > 5 | Cc1c(C(NC(=O)Nc2ccc(N)nc2)C(F)(F)F)oc2c(F)cc(F)cc12 (centres unmarked) [Compound 181] |
| < 1 | Cc1c([C@@H](NC(=O)Nc2cnc(N3CC(C(C)(C)O)C3)nc2)C(F)(F)F)oc2c(F)cc(F)cc12 [Compound 205] |
